Measurements taken from patent publication US10854312B2, “Selective peptide antagonists” (BIONIZ, LLC, priority 2013, dated 2020).
“Also recorded” adds a separate entry of the source. No end group written: not given here.

How the values were obtained:
human IL-21 = assay: PT-18 h21Rα survival assay (apoptosis by Annexin V staining), IL-21; assay type: cell-based; conditions: hIL-21Rα-transfected PT-18 cells, 1 nM human IL-21, 5 μM BNZ132-1, PE-Annexin V flow cytometry
Experimental: FIG. 6A-FIG. 6E presents inhibitory spectrum of BNZ132-1 over γc- and non-γc-cytokines. […] Neutralizing antibodies against each cytokine (R & D systems, 5 μg ml^−1) were included as controls. After 20 h, the cells were pulsed with WST-1 (Clontech) and OD450 of each well was measured after 6 h. A 19-mer scrambled peptide was used as a negative control at 5 μM. The experiments were conducted in triplicate (applies to all experiments in FIG. 6A-FIG. 6E). The result represents one of at least three independent experiments (applies to all experiments in FIG. 6A-FIG. 6E). […] In PT-18 proliferation assay, PT-18β or PT-18h21Rα cells were withdrawn of mouse IL-3 for 12 h before the experiment. Cells were then incubated with 1 nM of mouse IL-4, mouse IL-9, or mouse IL-21 in the presence or absence of the indicated doses (μM) of BNZ132-1. Neutralizing antibodies to each cytokine (5 μg ml^−1, except for anti-mouse IL-21 polyclonal antibody which was used at 15 μg ml−1) and a scrambled control peptide (5 μM) were included as negative controls. WST-1 assay was conducted as described above. […] In PT-18 h21Rα survival assay, PT-18h21Rα cells are described in the text. […] Both parental and hIL-21Rα positive PT-18 cells were washed and incubated without IL-3 for 12 h before the assay. […] The Y-axis represents the cpm (count per minute) values measured by a β-counter. […]

HAM/TSP T cells = assay: Spontaneous ex vivo proliferation of HAM/TSP patient lymphocytes (thymidine incorporation); assay type: cell-based, human; conditions: 5 days culture without exogenous cytokines; BNZ132-1 1 μM or 3 and 0.3 μM; mABs 5 mg/ml each
Experimental: FIG. 7A, and FIG. 7B present effective inhibition of a combined function of target γc-cytokines by BNZ132-1. […] Human Peripheral T cells were prepared as described in the methodology section. Four hundred thousand cells (in 200 μl culture) were incubated with the cytokines and BNZ132-1 at the indicated concentrations for 24 h, and cellular proliferation was determined by the […] using the WST-1 reagent (Clontech). The Y-axis represents the OD450 values. The p values; 1 nM cytokine combination-No inhibition vs. anti-IL-2; 0.33, No inhibition vs. anti-IL-15; 0.13, No inhibition vs. anti IL-2+IL-15; 0.003. No inhibition vs. BNZ132-1; 0.021. 0.1 nM cytokine combination-No inhibition vs. anti-IL-2; 0.046, No inhibition vs. anti-IL-15; 0.057, No inhibition vs. anti IL-2+IL-15; 0.001, No inhibition vs. anti IL-2+15; 0.001, No inhibition vs.BNZ132-1; 0.001. The assay was performed in triplicate. […] Peripheral blood mononuclear cells were purified from the blood of a HAM-TSP patient and set up for a spontaneous proliferation assay as previously described36. The cellular proliferation was measured by the thymidine incorporation assay. The Y-axis represents the cpm values. Doses are on the X-axis; BNZ132-1, 3 and 0.3 μM. Antibodies against IL-2 or IL-15 (1 and 10 μg ml-1 of each, R & D Systems). […]

## IKEFLQRFIHIVQSIINTS [BNZ132-1]
Human IL-21
  inhibition of IL-21-mediated protection from apoptotic death after IL-3 withdrawal: did not counteract the effect of IL-21; also recorded: not inhibited; also recorded: no inhibition of IL-21
HAM/TSP T cells
  inhibition of spontaneous ex vivo proliferation of HAM/TSP T cells: as effective inhibition as combined anti-IL-2 and anti-IL-15 mABs; also recorded: Efficient inhibition
